The assay deals with human GOAT (Homo sapiens (Human), UniProt Q96T53). The assay is described as follows: Determination of hGOAT Activity in HEK293 Cells after Incubation with Test Compound. The assay is classed as cell-based. The conditions noted are these: HEK293 cells stably transfected with preproghrelin and human GOAT; octanoate-BSA 100 μM; acyl-ghrelin in medium by ELISA after 5 hours. A digest of the protocol:
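HEK293 cells stably expressing preproghrelin and human GOAT were given serum-free medium with 100 μM octanoate-BSA plus compound (0.3% DMSO) for 5 h. Acyl-ghrelin in the medium was quantified by ELISA (A405, standard curve) as % of vehicle. IC50 was fitted from 8 concentrations.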
(ELISA stands for enzyme-linked immunosorbent assay.)

Sequence of human GOAT (Q96T53 whole entry): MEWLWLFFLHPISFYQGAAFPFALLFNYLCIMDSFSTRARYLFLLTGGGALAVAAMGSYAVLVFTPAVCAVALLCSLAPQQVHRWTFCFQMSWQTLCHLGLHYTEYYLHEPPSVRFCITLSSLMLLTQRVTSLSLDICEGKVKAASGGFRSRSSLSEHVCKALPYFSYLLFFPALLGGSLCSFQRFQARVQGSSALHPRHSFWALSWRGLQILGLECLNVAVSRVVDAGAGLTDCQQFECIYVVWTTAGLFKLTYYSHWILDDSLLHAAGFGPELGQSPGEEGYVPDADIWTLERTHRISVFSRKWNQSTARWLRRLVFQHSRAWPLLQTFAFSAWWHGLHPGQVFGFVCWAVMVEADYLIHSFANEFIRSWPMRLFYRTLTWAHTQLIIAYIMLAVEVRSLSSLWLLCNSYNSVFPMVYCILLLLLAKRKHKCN

What is called IC50 is the midpoint of a concentration-inhibition curve. A higher IC50 goes with a need for much substance. The molecule `Cc1nc2nonc2c(N)c1Cc1cc(C#N)ccn1` [Example 28, 2-(7-Amino-5-methyl-[1,2,5]oxadiazolo[3,4-b]pyridin-6-ylmethyl)-isonicotinonitrile] displayed an IC50 of 48000 pM.

With `Cc1nc2nonc2c(N)c1Cc1ccc(N2CC(F)(F)C2)c(C#N)n1` [Example 151, 6-(7-Amino-5-methyl-[1,2,5]oxadiazolo[3,4-b]pyridin-6-ylmethyl)-3-(3,3-difluoro-azetidin-1-yl)-pyridine-2-carbonitrile], the IC50 amounted to 1800 pM.

`Cc1nc2nonc2c(N)c1Cc1ccc(C(F)(F)F)cn1` [Example 6, 5-Methyl-6-(5-trifluoromethyl-pyridin-2-ylmethyl)-[1,2,5]oxadiazolo[3,4-b]pyridin-7-ylamine] had an IC50 of 610 pM.

With `Cc1nc2nonc2c(N)c1Cc1nc(C(F)F)c(Cl)c(C(F)F)n1` [Example 167, 6-[5-chloro-4,6-bis(difluoromethyl)pyrimidin-2-yl]methyl-5-methyl-[1,2,5]oxadiazolo[3,4-b]pyridin-7-amine], the IC50 was found to be 820 pM.

`Cc1nc2nonc2c(N)c1Cc1ccc(C#N)c(OCC2(C)COC2)n1` [Example 111, 6-(7-Amino-5-methyl-[1,2,5]oxadiazolo[3,4-b]pyridin-6-ylmethyl)-2-(3-methyl-oxetan-3-ylmethoxy)-nicotinonitrile] registered a concentration for half-maximal inhibition (IC50) of 100 pM.

`Cc1nc2nonc2c(N)c1Cc1ccc(-n2cc(F)cn2)c(C#N)n1` [Example 155, 6-(7-Amino-5-methyl-[1,2,5]oxadiazolo[3,4-b]pyridin-6-ylmethyl)-3-(4-fluoro-pyrazol-1-yl)-pyridine-2-carbonitrile] displayed an IC50 of 1200 pM.

Molecule `Cc1nc2nonc2c(N)c1Cc1ccc(C(F)(F)F)c(C(=O)C(C)C)n1` [Example 49, 1-[6-(7-Amino-5-methyl-[1,2,5]oxadiazolo[3,4-b]pyridin-6-ylmethyl)-3-trifluoromethyl-pyridin-2-yl]-2-methyl-propan-1-one] came in with an IC50 of 150 pM.

With `Cc1nc2nonc2c(N)c1Cc1ccc(C#N)c(NCC2(C)COC2)n1` [Example 135, 6-(7-Amino-5-methyl-[1,2,5]oxadiazolo[3,4-b]pyridin-6-ylmethyl)-2-[(3-methyl-oxetan-3-ylmethyl)-amino]-nicotinonitrile], half-maximal inhibition (IC50) required 200 pM.

In the case of `Cc1nc(Cc2c(C)nc3nonc3c2N)ncc1C#N` [Example 81, 2-(7-amino-5-methyl-[1,2,5]oxadiazolo[3,4-b]pyridin-6-ylmethyl)-4-methylpyrimidine-5-carbonitrile], inhibition was half-maximal at 7000 pM (IC50).

In the case of `CSc1nc(Cc2c(C)nc3nonc3c2N)ccc1Br` [Example 102, 6-(5-Bromo-6-methylsulfanyl-pyridin-2-ylmethyl)-5-methyl-[1,2,5]oxadiazolo[3,4-b]pyridin-7-ylamine], the IC50 amounted to 74 pM.

In the case of `Cc1nc2nonc2c(N)c1Cc1ccc(Br)cn1` [Example 5, 6-(5-Bromo-pyridin-2-ylmethyl)-5-methyl-[1,2,5]oxadiazolo[3,4-b]pyridin-7-ylamine], the half-maximal inhibitory concentration (IC50) amounted to 240 pM.

Regarding `COc1nc(Cc2c(C)nc3nonc3c2N)ccc1Br` [Example 97, 6-(5-Bromo-6-methoxy-pyridin-2-ylmethyl)-5-methyl-[1,2,5]oxadiazolo[3,4-b]pyridin-7-ylamine], the IC50 amounted to 22 pM.

With `Cc1nc2nonc2c(N)c1Cc1nccc(C(F)(F)F)n1` [Example 34, 5-Methyl-6-(4-trifluoromethyl-pyrimidin-2-ylmethyl)-[1,2,5]oxadiazolo[3,4-b]pyridin-7-ylamine], the IC50 came out at 3200 pM.

As to `Cc1nc2nonc2c(N)c1Cc1ccc(C#N)c(NC2CC2)n1` [Example 139, 6-(7-Amino-5-methyl-[1,2,5]oxadiazolo[3,4-b]pyridin-6-ylmethyl)-2-cyclopropylamino-nicotinonitrile], half-maximal inhibition (IC50) was put at 20 pM.

`Cc1nc2nonc2c(N)c1Cc1cccc(C#N)n1` [Example 164, 6-(7-Amino-5-methyl-[1,2,5]oxadiazolo[3,4-b]pyridin-6-ylmethyl)-pyridine-2-carbonitrile] had an IC50 of 7400 pM.

In the case of `Cc1nc2nonc2c(N)c1Cc1ccc(OCC(F)F)c(C#N)n1` [Example 116, 6-(7-Amino-5-methyl-[1,2,5]oxadiazolo[3,4-b]pyridin-6-ylmethyl)-3-(2,2-difluoro-ethoxy)-pyridine-2-carbonitrile], the IC50 came to 830 pM.

The molecule `Cc1nc2nonc2c(N)c1Cc1cccc(-c2c[nH]nc2C(F)(F)F)n1` [Example 62, 5-Methyl-6-[6-(3-trifluoromethyl-1H-pyrazol-4-yl)-pyridin-2-ylmethyl]-[1,2,5]oxadiazolo[3,4-b]pyridin-7-ylamine] returned an IC50 of 210 pM.

Consider `Cc1nc2nonc2c(N)c1Cc1ccc(C#N)c(N2CC(F)(F)C2)n1` [Example 142, 6-(7-Amino-5-methyl-[1,2,5]oxadiazolo[3,4-b]pyridin-6-ylmethyl)-2-(3,3-difluoro-azetidin-1-yl)-nicotinonitrile], for which half-maximal inhibition (IC50) required 27 pM.

In turn, `Cc1nc2nonc2c(N)c1Cc1ncc(Cl)c(C(F)F)n1` [Example 166, 6-[5-chloro-4-(difluoromethyl)pyrimidin-2-yl]methyl-5-methyl-[1,2,5]oxadiazolo[3,4-b]pyridin-7-amine] returned an IC50 of 380 pM.

Regarding `Cc1cnn(C)c1-c1ccc(Cc2c(C)nc3nonc3c2N)nc1N` [Example 68, 6-[6-Amino-5-(2,4-dimethyl-2H-pyrazol-3-yl)-pyridin-2-ylmethyl]-5-methyl-[1,2,5]oxadiazolo[3,4-b]pyridin-7-ylamine], it took 110 pM to reach half-maximal inhibition (IC50).

For the molecule `Cc1nc2nonc2c(N)c1Cc1cc(C(F)(F)F)cc(C#N)n1` [Example 36, 6-(7-amino-5-methyl-[1,2,5]oxadiazolo[3,4-b]pyridin-6-ylmethyl)-4-(trifluoromethyl)pyridine-2-carbonitrile], it took 6900 pM to reach half-maximal inhibition (IC50).

Molecule `Cc1nc2nonc2c(N)c1Cc1ccc(OC(F)F)c(Br)n1` [Example 15, 6-(6-Bromo-5-difluoromethoxy-pyridin-2-ylmethyl)-5-methyl-[1,2,5]oxadiazolo[3,4-b]pyridin-7-ylamine] returned an IC50 of 38 pM.

Consider `Cc1nc2nonc2c(N)c1Cc1cc(C(F)(F)F)c(C#N)cn1` [Example 74, 6-(7-Amino-5-methyl-[1,2,5]oxadiazolo[3,4-b]pyridin-6-ylmethyl)-4-trifluoromethyl-nicotinonitrile], for which the IC50 was 2000 pM.

In turn, `Cc1nc2nonc2c(N)c1Cc1cccc(-c2cn(C)nc2C(F)(F)F)n1` [Example 61, 5-Methyl-6-[6-(1-methyl-3-trifluoromethyl-1H-pyrazol-4-yl)-pyridin-2-ylmethyl]-[1,2,5]oxadiazolo[3,4-b]pyridin-7-ylamine] returned an IC50 of 290 pM.

`Cc1nc2nonc2c(N)c1Cc1cccc(Br)n1` [Example 7, 6-(6-Bromo-pyridin-2-ylmethyl)-5-methyl-[1,2,5]oxadiazolo[3,4-b]pyridin-7-ylamine] returned an IC50 of 950 pM.

In turn, `Cc1nc2nonc2c(N)c1Cc1ccc(C#N)c(OCC(C)(F)F)n1` [Example 103, 6-(7-Amino-5-methyl-[1,2,5]oxadiazolo[3,4-b]pyridin-6-ylmethyl)-2-(2,2-difluoro-propoxy)-nicotinonitrile] yielded an IC50 of 86 pM.

`Cc1nc2nonc2c(N)c1Cc1ccc(Br)c(N2CCOCC2)n1` [Example 123, 6-(5-Bromo-6-morpholin-4-yl-pyridin-2-ylmethyl)-5-methyl-[1,2,5]oxadiazolo[3,4-b]pyridin-7-ylamine]: the half-inhibitory concentration (IC50) is 26 pM.

Turning to `Cc1nc2nonc2c(N)c1Cc1ncc(C#N)cn1` [Example 77, 2-(7-amino-5-methyl-[1,2,5]oxadiazolo[3,4-b]pyridin-6-ylmethyl)pyrimidine-5-carbonitrile], half-maximal inhibition (IC50) required 3800 pM.

On to `Cc1nc2nonc2c(N)c1Cc1ccc(C(C)(F)F)cn1` [Example 11, 6-[5-(1,1-Difluoro-ethyl)-pyridin-2-ylmethyl]-5-methyl-[1,2,5]oxadiazolo[3,4-b]pyridin-7-ylamine], for which the IC50 came out at 130 pM.

In the case of `Cc1nc2nonc2c(N)c1Cc1ccc(Cl)c(C#N)n1` [Example 47, 6-(7-amino-5-methyl-[1,2,5]oxadiazolo[3,4-b]pyridin-6-ylmethyl)-3-chloropyridine-2-carbonitrile], the concentration for half-maximal inhibition (IC50) was determined as 2400 pM.

As for `Cc1nc2nonc2c(N)c1Cc1ncc(Cl)cn1` [Example 30, 6-(5-Chloro-pyrimidin-2-ylmethyl)-5-methyl-[1,2,5]oxadiazolo[3,4-b]pyridin-7-ylamine], the IC50 turned out to be 2700 pM.

For the molecule `Cc1nc2nonc2c(N)c1Cc1ncc(C(F)(F)F)c(N)n1` [Example 46, 2-(7-amino-5-methyl-[1,2,5]oxadiazolo[3,4-b]pyridin-6-ylmethyl)-5-(trifluoromethyl)pyrimidin-4-amine], inhibition was half-maximal at 220 pM (IC50).

As for `Cc1nc2nonc2c(N)c1Cc1ccc(Br)c(OCCCF)n1` [Example 101, 6-[5-Bromo-6-(3-fluoro-propoxy)-pyridin-2-ylmethyl]-5-methyl-[1,2,5]oxadiazolo[3,4-b]pyridin-7-ylamine], the IC50 amounted to 74 pM.

`Cc1nc2nonc2c(N)c1Cc1ncc(C(F)(F)F)cn1` [Example 35, 5-methyl-6-[5-(trifluoromethyl)pyrimidin-2-yl]methyl-[1,2,5]oxadiazolo[3,4-b]pyridin-7-amine] returned an IC50 of 1800 pM.

`Cc1nc2nonc2c(N)c1Cc1ccc(C#N)c(S(C)(=O)=O)n1` [Example 162, 6-(7-Amino-5-methyl-[1,2,5]oxadiazolo[3,4-b]pyridin-6-ylmethyl)-2-methanesulfonyl-nicotinonitrile] registered an IC50 of 4600 pM.

In turn, `Cc1nc2nonc2c(N)c1Cc1ccc(C(F)(F)F)c(C(N)=O)n1` [Example 89, 6-(7-Amino-5-methyl-[1,2,5]oxadiazolo[3,4-b]pyridin-6-ylmethyl)-3-trifluoromethyl-pyridine-2-carboxylic Acid Amide] gave an IC50 of 430 pM.

The values are drawn from patent publication US10308667B2, “Oxadiazolopyridine derivatives for use as ghrelin O-acyl transferase (GOAT) inhibitors” (Boehringer Ingelheim International GmbH, priority 2016, dated 2019).
